# Assay results taken from patent US20080103127A1, “METHODS FOR TREATING DISRUPTIVE BEHAVIOR DISORDERS” (priority 2006, published 2008).
# Marks after values point to notes of the source that are not given here.
# What was measured:
# [1] = system: isolation-induced aggressive behavior in pairs of mice; assay: Isolation-induced aggression model in pairs of mice; format: in vivo, CrI:CD-1(ICR)BR albino mice
# Procedure: The effects of test compound on the aggressive behavior of CrI:CD-1(ICR)BR albino mice were evaluated using the paradigm of isolation-induced aggression.
# Male CrI:CD-1(ICR)BR albino mice, fasted overnight, were individually housed for 5 weeks in plastic cages on wood-chip bedding. Subsequently, they were paired for 1 minute daily for several days by placing one individually housed mouse (intruder) into the resident cage of another individually housed mouse (resident). The 1-minute pairing of intruder and resident mouse elicits aggressive behavior. Pairs of mice showing consistent aggressive behavior when paired for 1 minute, during several days were selected as subjects for drug testing.
# Test compound (10 to 40 mg/kg p.o.) or the vehicle (methocel; aqueous 0.5%, w/v, hydroxypropyl methylcellulose solution) was administered (10 mL/kg) to the resident and intruder mouse. One and 4 hours after dosing, the mice were paired and the onset of fighting was recorded. […] The duration of fighting during a 1-minute test period was recorded. Mice were re-used in this procedure after several days to a week to allow metabolism and elimination of test compounds. The mice weighed 32 to 49 g at the time of testing and were fasted overnight before dosing. Mice were euthanized with CO2 if they were sick or injured.
# Results were expressed as the median onset of fighting and median duration of fighting in vehicle and drug-treated groups. The statistical significance of an increase in the median onset or a reduction in the median duration of fighting in pairs of mice given test compound or its vehicle 1 and 4 hours after administration was determined using the nonparametric Wilcoxon test (p<0.05, 1-tailed).
# submissive rats = assay: Reduction of Submissive Behavior Model (RSBM) of depression, dominant-submissive rat food competition test; format: in vivo, Sprague-Dawley rats
# Excerpt: (§1) In this study, the effects of COMPOUND #7 on dominant or submissive behavior in pairs of rats competing for food are examined. It has been shown that anti-manic drugs, including anticonvulsants, decrease dominance and antidepressant drugs reduce submissiveness. This model uses dominant behavior as a model of mania and submissive behavior as a model of depression. The dominance and submissiveness is defined in a competition test and measured as the relative success of two food-restricted rats to gain access to a feeder. Rats are randomly paired and placed in an apparatus allowing them to compete for a food reward. The dominant-submissive relationship develops over a 2-week period. The submissive or dominant animals in pairs selected after 2 weeks of training were treated orally […] (b.i.d.) with COMPOUND #7 at 3 or 30 mg/kg for 5 weeks. The partner of the drug-treated animal was treated with vehicle.
# (§2) The objective of this study was to determine if COMPOUND #7 is active in the Reduction of Submissive Behavior Model (RSBM) of depression and the Reduction of Dominant Behavior Model (RDBM) of mania. Measurements were made at two doses (3 and 30 mg/kg) after oral twice a day (b.i.d.) administration. The effect of the drug in the RSBM was compared to the effect of fluoxetine (10 mg/kg) and vehicle (0.5% methylcellulose). The effect of the drug in the RDBM was compared with the effect of lithium (100 mg/kg) and vehicle (0.5% methylcellulose). The endpoints measured were the development of a significant reduction of submissive or dominant behavior and its time of onset.
# (§3) The DSR developed by two rats competing for food uses the apparatus in FIG. 1. The methodology and equipment are described in several publications. (See, Malatynska E, Goldenberg R, Shuck L, Haque A, Zamecki P, Crites G, Schindler N, Knapp R J. Reduction of submissive behavior in rats: a test for antidepressant drug activity. Pharmacology 2002; 64:8; Malatynska E, Rapp R, Crites G. Dominant behavior measured in a competition test as a model of mania. In: International Behavioral Neuroscience Society Meeting, ed. IBNSCapri, Italy, 2002, p 26.; Bonnet U. Moclobemide: therapeutic use and clinical studies. CNS Drug Rev 2003; 9:97; Danysz W, Plaznik A, Kostowski W, Malatynska E, Jarbe T U, Hiltunen A J, Archer T. Comparison of desipramine, amitriptyline, zimeldine and alaproclate in six animal models used to investigate antidepressant drugs. Pharmacol Toxicol 1988; 62:42; Knapp R J, Goldenberg R, Shuck C, Cecil A, Watkins J, Miller C, Crites G, Malatynska E. Antidepressant activity of memory-enhancing drugs in the reduction of submissive behavior model. Eur J Pharmacol 2002; 440:27; Kostowski W, Malatynska E, Plaznik A, Dyr W, Danysz W. Comparative studies on antidepressant action of alprazolam in different animal models. Pol J Pharmacol Pharm 1986; 38, 471; Malatynska E, De Leon I, Allen D, Yamamura Hi. Effects of amitriptyline on GABA-stimulated ^36Cl^− uptake in relation to a behavioral model of depression. Brain Res Bull 1995; 37:53; Malatynska E, Kostowski W. The effect of antidepressant drugs on dominance behavior in rats competing for food. Pol J Pharmacol Pharm 1984; 36:531; Malatynska E, Kostowski W. Desipramine antagonizes clonidine-induced suppression of dominance in rats: possible involvement of amygdaloid nuclei. Pol J Pharmacol Pharm 1988; 40:357).
# In the experiments described in this report Sprague-Dawley rats weighing 160 to 180 g were used. Testing for the development of a DSR between paired rats begins with the random assignment of rats into pairs. Rats from pairs are housed separately between test sessions with other animals in groups of four. The animals are food-deprived overnight with free access to water.
# The test involves placing each member of a pair in opposite chambers of the testing apparatus. These chambers are connected through a narrow tunnel with a small container of sweetened milk at the center. […]
# dominant rats = assay: Reduction of Dominant Behavior Model (RDBM) of mania, dominant-submissive rat food competition test; format: in vivo, Sprague-Dawley rats
# Excerpt: as §1, §2, §3
# In the experiments described in this report Sprague-Dawley rats weighing 160 to 180 g were used. […]
# [2] = 10 mg/kg p.o., 1 hour after administration
# [3] = 10 mg/kg p.o., 4 hours after administration
# [4] = 20 mg/kg p.o., 1 hour after administration
# [5] = 20 mg/kg p.o., 4 hours after administration
# [6] = 30 mg/kg p.o., 1 hour after administration
# [7] = 30 mg/kg p.o., 4 hours after administration
# [8] = 40 mg/kg p.o., 1 hour after administration
# [9] = 40 mg/kg p.o., 4 hours after administration
structure (smiles),measurement,setting,value
"NC(=O)OC[C@@H](O)c1ccccc1Cl [COMPOUND #7, carisbamate]",Median Duration of isolation-induced fighting,[1]; [2],28 s
same,Median Onset of isolation-induced fighting,[1]; [2],5 s
same,Median Duration of isolation-induced fighting,[1]; [3],6 s
same,Median Onset of isolation-induced fighting,[1]; [3],4 s
same,Median Duration of isolation-induced fighting,[1]; [4],20 s
same,Median Onset of isolation-induced fighting,[1]; [4],11 s
same,Median Duration of isolation-induced fighting,[1]; [5],26 s
same,onset of initiation of fighting compared to vehicle-treated group,[1]; [5],significantly shortened
same,Median Duration of isolation-induced fighting,[1]; [6],18 s
same,Median Onset of isolation-induced fighting,[1]; [6],14 s
same,Median Duration of isolation-induced fighting,[1]; [7],9.5 s
same,Median Onset of isolation-induced fighting,[1]; [7],4 s
same,Median Duration of isolation-induced fighting,[1]; [8],0.5^b sec
same,Median Onset of isolation-induced fighting,[1]; [8],40 s
same,isolation-induced aggressive behavior in pairs of mice,"[1]; 40 mg/kg p.o., 1 hour after administration, p<0.05",statistically significantly inhibited
same,Median Duration of isolation-induced fighting,[1]; [9],20 s
same,Median Onset of isolation-induced fighting,[1]; [9],17 s
same,median duration of fighting compared to vehicle-treated groups,"[1]; any group (10 to 40 mg/kg p.o.), 4 hours after administration",not affected
same,effect on submissive rat behavior,"submissive rats; 3 mg/kg b.i.d. p.o., 5 weeks, submissive rat treated, partner vehicle",did not have any effect
same,onset of increased competitiveness of submissive rats (time of treatment),submissive rats; 30 mg/kg b.i.d. p.o.,1 week
same,efficacy in submissive rats compared with fluoxetine,submissive rats; 30 mg/kg b.i.d. p.o. vs fluoxetine 10 mg/kg i.p. once a day,same efficacy as fluoxetine
same,competitiveness of submissive rat compared to vehicle-treated submissive rats,"submissive rats; 30 mg/kg b.i.d. p.o., 5 weeks, submissive rat treated",significantly increased competitiveness
same,onset of significant decrease of dominant rat performance (time of treatment),dominant rats; 3 mg/kg b.i.d. p.o.,3 weeks
same,extent and onset of the effect on dominant rats compared with lithium,dominant rats; 3 mg/kg b.i.d. p.o. vs lithium 100 mg/kg i.p.,not significantly different
same,performance of dominant rats,"dominant rats; 3 mg/kg b.i.d. p.o., 5 weeks, dominant rat treated, partner vehicle",decreased the performance
same,onset of increased competitiveness of dominant rats (time of treatment),dominant rats; 30 mg/kg b.i.d. p.o.,2 weeks
same,competitiveness of dominant rats compared to water treated dominant rats,"dominant rats; 30 mg/kg b.i.d. p.o., 5 weeks, dominant rat treated",significantly increased the competitiveness
